The record followed here is PubChem BioAssay (NCI).

The structures appear in SMILES notation.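 In this assay, cells in 96-well plates receive the compound at five concentrations for 48 hours. Endpoints are linearly interpolated between the surrounding concentrations. Here, GI50 denotes the concentration required for 50% inhibition of growth. TGI: concentration producing complete growth inhibition.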 Bounds are passed on as bounds.

Test systems include SK-MEL-5 melanoma; HOP-62 NSCLC; HCT-15 colon; MDA-MB-435; RPMI-8226 leukemia; SW-620 colon; HS 578T breast; IGROV1 ovarian; SNB-19 CNS; OVCAR-5 ovarian.
Holding throughout (experiment): NCI anticancer screen, dose series, 48 h

`OC(c1cccc(-n2ccc(C(F)(F)F)n2)c1)c1cnccc1NC1CCCCCC1` (centres undefined): the GI50 was 1.73 µM in the assay on SK-MEL-5 melanoma; 1.95 µM with HOP-62 NSCLC; 1.6 µM in the assay on HCT-15 colon; 1.73 µM with MDA-MB-435; 1.57 µM with RPMI-8226 leukemia; 1.67 µM in the assay on SW-620 colon. For the same molecule, the GI50 was 1.64 µM in the assay with HS 578T breast, 1.53 µM with IGROV1 ovarian, 1.73 µM with SNB-19 CNS and 1.64 µM in the assay with OVCAR-5 ovarian. Further, the TGI with SK-MEL-5 melanoma amounted to 3.18 µM; in the assay with HOP-62 NSCLC it was 3.84 µM; in the assay with HCT-15 colon, 3.1 µM; in the assay on MDA-MB-435, 3.14 µM; with RPMI-8226 leukemia it was 4.51 µM; with SW-620 colon it was 3.31 µM. Moreover, the TGI in the assay with HS 578T breast turned out to be 3.69 µM; in the assay on IGROV1 ovarian, 2.92 µM; in the assay with SNB-19 CNS, 3.24 µM; with OVCAR-5 ovarian, 3.01 µM.

In the case of `CCOC(=O)c1ccc2[nH]c(-c3ccc(S(=O)(=O)F)cc3)cc(=O)c2c1`, the TGI with SK-MEL-5 melanoma, in the assay on HOP-62 NSCLC, in the assay with HCT-15 colon, in the assay on MDA-MB-435, in the assay on RPMI-8226 leukemia and in the assay with SW-620 colon was above 100 µM throughout. The TGI with HS 578T breast, in the assay on IGROV1 ovarian, in the assay with SNB-19 CNS and with OVCAR-5 ovarian was above 100 µM throughout.

For the molecule `O=C(O)CCNc1ccccc1C(=O)O`, the TGI in the assay with SK-MEL-5 melanoma, with HOP-62 NSCLC, in the assay on HCT-15 colon, in the assay with MDA-MB-435, in the assay with RPMI-8226 leukemia and with SW-620 colon was above 100 µM each time. Besides, the TGI in the assay on HS 578T breast, in the assay on IGROV1 ovarian, in the assay on SNB-19 CNS and in the assay with OVCAR-5 ovarian was above 100 µM throughout.

Take `COc1cc(C(=O)/C=C/c2c(C)n([O-])c3ccc(C)cc3[n+]2=O)cc(OC)c1OC`: the GI50 was 14.8 µM with SK-MEL-5 melanoma; 21.3 µM with HOP-62 NSCLC; 1.8 µM in the assay with HCT-15 colon; 6.47 µM with MDA-MB-435; 2.87 µM in the assay with RPMI-8226 leukemia; 1.53 µM with SW-620 colon. Besides, the GI50 is 14.7 µM with HS 578T breast, 3.8 µM in the assay on IGROV1 ovarian, 20.8 µM with SNB-19 CNS and 12.8 µM in the assay with OVCAR-5 ovarian. In addition, the TGI in the assay with SK-MEL-5 melanoma is 28 µM; in the assay on HOP-62 NSCLC, 47.8 µM; with HCT-15 colon, 4.48 µM; with MDA-MB-435, above 63.4 µM; in the assay on RPMI-8226 leukemia, 17.6 µM; in the assay on SW-620 colon it was 3.02 µM. For the same molecule, the TGI was determined as 60.7 µM in the assay with HS 578T breast, 13 µM with IGROV1 ovarian, 46 µM in the assay on SNB-19 CNS and 29.6 µM with OVCAR-5 ovarian.

Take `CN(Cc1cnc2nc(N)nc(N)c2n1)c1ccc(C(=O)NC(CCC(=O)O)C(=O)O)cc1C(F)(F)F` (centres undefined): the TGI with SK-MEL-5 melanoma, in the assay with HOP-62 NSCLC, in the assay on HCT-15 colon, in the assay on MDA-MB-435, in the assay on RPMI-8226 leukemia and in the assay with SW-620 colon was above 100 µM in each case. Moreover, the TGI with HS 578T breast, with IGROV1 ovarian, in the assay on SNB-19 CNS and in the assay with OVCAR-5 ovarian was above 100 µM each time.

As for `FC(F)(F)Oc1cccc(-c2cnc3ccc(-c4ccncc4)nn23)c1`, the GI50 is 1.49 µM with SK-MEL-5 melanoma; 2.17 µM with HOP-62 NSCLC; 0.608 µM with HCT-15 colon; 2.11 µM with MDA-MB-435; 1.31 µM in the assay with RPMI-8226 leukemia; 0.801 µM in the assay on SW-620 colon. The GI50 with HS 578T breast is 1.21 µM; in the assay on IGROV1 ovarian it was 0.502 µM; in the assay with SNB-19 CNS it was 2.07 µM; in the assay with OVCAR-5 ovarian, 1.96 µM. Besides, the TGI with SK-MEL-5 melanoma is 3.23 µM; in the assay on HOP-62 NSCLC, above 100 µM; with HCT-15 colon, above 100 µM; with MDA-MB-435 it was 48.9 µM; in the assay on RPMI-8226 leukemia, 4.84 µM; in the assay on SW-620 colon, above 100 µM. In addition, the TGI with HS 578T breast is 4.24 µM; with IGROV1 ovarian it was 5.46 µM; in the assay on SNB-19 CNS it was above 100 µM; in the assay with OVCAR-5 ovarian, above 100 µM.

With `Cc1c2cc[n+](C)cc2c(C)c2c1sc1ccccc12`, the TGI was 4.56 µM in the assay with SK-MEL-5 melanoma; 1.76 µM with HOP-62 NSCLC; above 100 µM in the assay on HCT-15 colon; 6.18 µM with MDA-MB-435; 5.68 µM in the assay on RPMI-8226 leukemia; 33.1 µM in the assay with SW-620 colon. For the same molecule, the TGI was 0.692 µM in the assay with HS 578T breast, 28.4 µM in the assay on IGROV1 ovarian, 2 µM in the assay with SNB-19 CNS and 15.6 µM in the assay on OVCAR-5 ovarian.

Consider `Cc1cccc(NC(=O)CCc2ccc(N3C(N)=NC(N)=NC3(C)C)cc2)c1`, for which the GI50 is 2.48 µM in the assay on SK-MEL-5 melanoma; 16.9 µM with HOP-62 NSCLC; above 100 µM in the assay with HCT-15 colon; 0.56 µM with MDA-MB-435; 3.17 µM with RPMI-8226 leukemia; 1.13 µM in the assay with SW-620 colon. The GI50 is above 52 µM with HS 578T breast, 0.603 µM in the assay with IGROV1 ovarian, 8.35 µM in the assay with SNB-19 CNS and above 37.2 µM in the assay on OVCAR-5 ovarian. The TGI in the assay on SK-MEL-5 melanoma, in the assay on HOP-62 NSCLC, with HCT-15 colon, in the assay with MDA-MB-435, with RPMI-8226 leukemia and in the assay with SW-620 colon was above 100 µM throughout. Moreover, the TGI in the assay on HS 578T breast, in the assay on IGROV1 ovarian, in the assay with SNB-19 CNS and with OVCAR-5 ovarian was above 100 µM in each case.

As for `CCCCON(OC(=O)c1ccccc1)C(=O)c1ccccc1`, the GI50 in the assay on SK-MEL-5 melanoma, in the assay with HOP-62 NSCLC, with HCT-15 colon, in the assay with MDA-MB-435, in the assay on RPMI-8226 leukemia and with SW-620 colon was above 100 µM in each case. The GI50 in the assay with HS 578T breast, with IGROV1 ovarian, with SNB-19 CNS and with OVCAR-5 ovarian was above 100 µM in each case. Also, the TGI with SK-MEL-5 melanoma, with HOP-62 NSCLC, with HCT-15 colon, with MDA-MB-435, in the assay with RPMI-8226 leukemia and with SW-620 colon was above 100 µM in each case. In addition, the TGI with HS 578T breast, with IGROV1 ovarian, in the assay on SNB-19 CNS and with OVCAR-5 ovarian was above 100 µM each time.

For the molecule `CC(=O)NCCc1c2c(c3nccc4c3c1Nc1ccccc1-4)OCS2`, the GI50 with SK-MEL-5 melanoma is 2.99 µM; with HOP-62 NSCLC, 3.6 µM; with HCT-15 colon, 1.26 µM; in the assay with MDA-MB-435, 3.88 µM; with RPMI-8226 leukemia it was 0.895 µM; with SW-620 colon it was 0.226 µM. Also, the GI50 is 8.19 µM with HS 578T breast, 0.976 µM in the assay on IGROV1 ovarian, 3.17 µM in the assay with SNB-19 CNS and 5.21 µM with OVCAR-5 ovarian. Moreover, the TGI was found to be 14.5 µM in the assay on SK-MEL-5 melanoma; 34.1 µM in the assay with HOP-62 NSCLC; 8.77 µM in the assay on HCT-15 colon; 18.9 µM with MDA-MB-435; 8.15 µM in the assay on SW-620 colon; 37 µM with HS 578T breast. Besides, the TGI is 5.61 µM in the assay on IGROV1 ovarian, 18.8 µM in the assay on SNB-19 CNS and 21.3 µM with OVCAR-5 ovarian.

As to `Cn1cc(-c2ccc3c(Nc4cccc(NC(=O)Nc5cccc(F)c5)c4)ncnc3c2)cn1`, the GI50 is 1.53 µM in the assay on SK-MEL-5 melanoma; 1.84 µM in the assay with HOP-62 NSCLC; 2.5 µM in the assay on HCT-15 colon; 1.49 µM with MDA-MB-435; 1.53 µM with RPMI-8226 leukemia; 1.9 µM with SW-620 colon. Further, the GI50 in the assay on HS 578T breast was 1.5 µM; in the assay with IGROV1 ovarian, 1.3 µM; with SNB-19 CNS, 3.16 µM; with OVCAR-5 ovarian, 10.3 µM. The TGI with SK-MEL-5 melanoma amounted to 2.94 µM; in the assay with HOP-62 NSCLC, 14.9 µM; in the assay on HCT-15 colon it was 13.1 µM; with MDA-MB-435, 2.89 µM; in the assay with RPMI-8226 leukemia, 4.65 µM; in the assay with SW-620 colon it was 4.45 µM. Moreover, the TGI was found to be 9.79 µM in the assay on HS 578T breast, 11.2 µM in the assay with IGROV1 ovarian, 13.5 µM in the assay with SNB-19 CNS and 22 µM with OVCAR-5 ovarian.

With `COc1ccc2[nH]c(=O)c3c4ccccc4cn3c2c1`, the GI50 was 0.377 µM in the assay on SK-MEL-5 melanoma; 0.228 µM in the assay on HOP-62 NSCLC; 0.31 µM in the assay on HCT-15 colon; 0.154 µM with MDA-MB-435; 0.358 µM in the assay with RPMI-8226 leukemia; 0.319 µM with SW-620 colon. Moreover, the GI50 in the assay on HS 578T breast was 0.25 µM; with IGROV1 ovarian it was 0.575 µM; in the assay on SNB-19 CNS, 0.95 µM; in the assay with OVCAR-5 ovarian it was 0.659 µM. For the same molecule, the TGI with SK-MEL-5 melanoma amounted to 1.44 µM; in the assay with HOP-62 NSCLC, 0.885 µM; with HCT-15 colon, 1.4 µM; with MDA-MB-435, 0.411 µM; with RPMI-8226 leukemia, 2.03 µM; with SW-620 colon, 1.39 µM. In addition, the TGI in the assay with HS 578T breast turned out to be 0.775 µM; in the assay with IGROV1 ovarian it was 5.23 µM; in the assay on SNB-19 CNS it was 9.33 µM; in the assay with OVCAR-5 ovarian it was 2.69 µM.

On to `CC[C@]12CCCN3CCc4c(n(c5ccccc45)C(=O)C1)[C@@H]32`, for which the TGI in the assay on SK-MEL-5 melanoma is above 35.1 µM; with HOP-62 NSCLC, above 100 µM; with HCT-15 colon, above 100 µM; with MDA-MB-435, 4.41 µM; in the assay with RPMI-8226 leukemia it was above 65.1 µM; in the assay with SW-620 colon, above 65 µM. The TGI in the assay on HS 578T breast is 49.1 µM; in the assay with IGROV1 ovarian, above 100 µM; with SNB-19 CNS it was above 100 µM; in the assay with OVCAR-5 ovarian, above 100 µM.
